Test results from PMC11193748 (Communications Biology, 2024).
Like-named read-outs stand apart in the source and are kept apart here.

Key:
P. infestans [1] = system: P. infestans
LcsG = target: T1, LcsG (Purpureocillium lilacinum, UniProt A0A179H2P2); assay: Michaelis-Menten enzyme kinetics of LcsG with leucinostatin substrates; format: biochemical, Purpureocillium lilacinum PLBJ-1; conditions: for Kcat/Km: compound as substrate of LcsG, from the Michaelis-Menten fit; for Kcat / Km: compound as substrate, 1 μM LcsG, 34 °C, 30 min, product formation by LC-MS, nonlinear regression, n = 3
T1 construct: pACYC-lcsG was generated by integrating the lcsG gene from the PLBJ-1 cDNA into the protein expression vector pACYCDuet-1; His6 (N); His6 (C); made in house; host or cells: E. coli ArcticExpress (DE3)
T1 sequence (A0A179H2P2 1-468): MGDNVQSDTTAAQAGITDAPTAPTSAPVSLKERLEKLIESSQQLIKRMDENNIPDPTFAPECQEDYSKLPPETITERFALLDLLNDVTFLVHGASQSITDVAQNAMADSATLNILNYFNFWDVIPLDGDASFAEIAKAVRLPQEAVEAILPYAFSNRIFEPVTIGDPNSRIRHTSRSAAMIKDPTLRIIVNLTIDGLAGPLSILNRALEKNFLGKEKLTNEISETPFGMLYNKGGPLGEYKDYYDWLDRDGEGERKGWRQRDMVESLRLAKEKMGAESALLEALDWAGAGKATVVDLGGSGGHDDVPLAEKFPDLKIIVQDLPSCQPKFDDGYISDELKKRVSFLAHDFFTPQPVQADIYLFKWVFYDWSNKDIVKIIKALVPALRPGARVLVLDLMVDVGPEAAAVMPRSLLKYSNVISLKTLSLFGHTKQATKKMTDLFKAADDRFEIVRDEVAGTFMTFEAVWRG
Procedure: The compounds were quantified by an external standard method and calibration curves were constructed using LeuA0 and LeuK3. In this study, LeuA0 was diluted to concentrations of 25, 50, 100, 250, and 500 nM. LeuK3 was also diluted to concentrations of 50, 100, 250, 500, and 1000 nM. Dilutions were prepared in MeCN, and calibration curves were constructed using the software GraphPad Prism 9.
The kinetic constants of LcsG were determined by the following approach: 1 μM LcsG was assayed against different specific concentrations of the substrates LeuA (2, 4, 8, 10, 20, 40, 80, 100, 120, 150, and 200 μM) and LeuK0 (4, 8, 10, 20, 40, 80, 100, 120, 140, and 160 μM). The initial rate of the reaction was measured by monitoring the formation of products (LeuA0 or LeuK3) at 34 °C for 30 min. The rates were plotted against substrate concentration using the Michaelis‒Menten kinetics equation by nonlinear regression analysis with the software GraphPad Prism 9, and Km and Kcat constants were generated from the resulting Michaelis‒Menten plot.
LC‒MS analyses were performed on an Agilent 1290 Infinity II HPLC with an Agilent Infinity Lab single quadrupole mass selective detector by using an Agilent Zorbax Eclipse Plus C18 reversed-phase column (2.1 × 100 mm, 2.7 μm). Water (A) with 0.1% (v/v) formic acid and acetonitrile (B) were used as the solvents at a flow rate of 0.25 ml min^−1. The substances were eluted with 10% (v/v) B for 1 min, subjected to a linear gradient from 10 to 100% (v/v) B for 12 min, washed with 100% solvent B for 5 min, and equilibrated with 5% solvent B for 10 min at a flow rate of 0.25 ml/min. The mass spectrometer was set in electrospray positive ion mode for ionization.

P. infestans [2] = conditions: cited from earlier work
C. neoformans = conditions: cited from earlier work

| Substance | growth inhibition, agar diffusion assay (P. infestans [1]) | growth inhibition, agar diffusion assay (C. neoformans H99) | Kcat/Km (LcsG) | Kcat (LcsG) | Km (LcsG) | inhibitory effects on P. infestans (P. infestans [2]) | inhibitory effects on C. neoformans (C. neoformans) | inhibitory effects on P. infestans (P. infestans [2]; previous studies) |
| --- | --- | --- | --- | --- | --- | --- | --- | --- |
| leucinostatin K0 [LeuK0] | inhibitory effects | inhibitory effects | 32.94 M⁻¹ s⁻¹ | 0.00624 s⁻¹ | 189 µM |  |  |  |
| leucinostatin A [LeuA] |  |  | 65.39 M⁻¹ s⁻¹ | 0.00075 s⁻¹ | 11.5 µM | inhibitory effects | inhibitory effects |  |
| leucinostatin B [LeuB] |  |  |  |  |  |  | inhibitory effects | inhibitory effects |
